Source: patent US12421212B2, “Substituted benzenecarboxamides as IL-17A modulators” (DiCE Alpha, Inc., priority 2019, dated 2025)

Molecular target: T1, IL-17A/A (Homo sapiens, UniProt Q16552)
T1 construct: purchased Genscript Z03228
T1 sequence (Q16552 24-155): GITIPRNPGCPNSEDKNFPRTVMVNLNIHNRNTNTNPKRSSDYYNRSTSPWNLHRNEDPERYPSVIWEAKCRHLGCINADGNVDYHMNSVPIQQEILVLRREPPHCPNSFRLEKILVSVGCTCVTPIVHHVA
Experiment: IL-17A/A HEK-Blue Cell Assay
Type: cell-based
Details: HEK-Blue IL-17A reporter cell line, SEAP readout at A630, 20 hours incubation with IL-17A/A; top concentration 10 uM, 1 uM or 0.3 uM; read-out: IL-17A/A inhibition (pIC50) (converted)

CC(C)n1nccc1C(=O)N[C@H](C(=O)Nc1ccc([C@H](C)[C@@H](NC(=O)c2ccnn2CC2CC2)C(=O)N2CCN(C)CC2)cc1F)[C@H]1CC[C@H](C)CC1 [Compound 329]
IC50: < 10 nM

CC(C)n1nccc1C(=O)N[C@@H](C(=O)N1CCN(C)CC1)[C@@H](C)c1ccc(NC(=O)[C@@H](NC(=O)c2ccnn2C(C)C)[C@H]2CC[C@H](C)CC2)c(F)c1 [Compound 330]
IC50: < 10 nM

COc1ccc(C(F)(F)C(=O)N[C@H](C(=O)Nc2ccc([C@H](C)[C@@H](NC(=O)c3cnns3)C(=O)N3CCN(C)CC3)cc2F)C2CCCCCC2)cn1 [Compound 331]
IC50: < 10 nM

CC(C)n1nccc1C(=O)N[C@H](C(=O)Nc1ccc([C@H](C)[C@@H](NC(=O)c2cnns2)C(=O)N2CCN(C)CC2)cc1F)C1CCCCCC1 [Compound 332]
IC50: < 10 nM

CC(C)n1nccc1C(=O)N[C@H](C(=O)Nc1ccc([C@H](C)[C@@H](NC(=O)c2cnns2)C(=O)N2CCN(C)CC2)cc1F)[C@H]1CC[C@H](C)CC1 [Compound 333]
IC50: < 10 nM

C[C@@H](c1ccc(NC(=O)[C@@H](NC(=O)C(F)(F)c2cncc(C#N)c2)C2CCCCCC2)c(F)c1)[C@@H](NC(=O)c1cnns1)C(=O)N1CCN(C)CC1 [Compound 335]
IC50: < 10 nM

CC1CCC(C(NC(=O)C(F)(F)c2cccc(C#N)c2)C(=O)Nc2ccc(C(C)C(NC(=O)c3cnns3)C(=O)N3CCN(C)CC3)cc2F)CC1 (stereo not shown) [Compound 336]
IC50: < 10 nM

CCn1nccc1C(=O)N[C@H](C(=O)Nc1ccc([C@H](C)[C@@H](NC(=O)c2cnns2)C(=O)N2CCN(C)CC2)cc1F)C1CCCCCC1 [Compound 337]
IC50: < 10 nM

CCn1nccc1C(=O)N[C@H](C(=O)Nc1ccc([C@H](C)[C@@H](NC(=O)NC2CC2)C(=O)N2CCN(C)CC2)cc1F)C1CCCCCC1 [Compound 338]
IC50: < 10 nM

CC(C)n1nccc1C(=O)N[C@H](C(=O)Nc1ccc([C@H](C)[C@@H](NC(=O)NC2CC2)C(=O)N2CCN(C)CC2)cc1F)C1CCCCCC1 [Compound 339]
IC50: < 10 nM

CCn1nccc1C(=O)N[C@H](C(=O)Nc1ccc([C@H](C)[C@@H](NC(=O)CC2CC2)C(=O)N2CCN(C)CC2)cc1F)C1CCCCCC1 [Compound 340]
IC50: < 10 nM

CCC(=O)N[C@@H](C(=O)N1CCN(Cc2ccccn2)CC1)[C@@H](C)c1ccc(NC(=O)[C@@H](NC(=O)c2ccnn2CC)[C@H]2CC[C@H](C)CC2)c(F)c1 [Compound 341]
IC50: 10 to 100 nM

CCC(=O)N[C@@H](C(=O)N1CCOCC1)[C@@H](C)c1ccc(NC(=O)[C@@H](NC(=O)c2ccnn2CC)[C@H]2CC[C@H](C)CC2)c(F)c1 [Compound 342]
IC50: 10 to 100 nM

CCC(=O)N[C@@H](C(=O)N1CCC(C)(O)CC1)[C@@H](C)c1ccc(NC(=O)[C@@H](NC(=O)c2ccnn2CC)[C@H]2CC[C@H](C)CC2)c(F)c1 [Compound 343]
IC50: 10 to 100 nM

CCC(=O)N[C@@H](C(=O)N[C@@H](C)C1CC1)[C@@H](C)c1ccc(NC(=O)[C@@H](NC(=O)c2ccnn2CC)[C@H]2CC[C@H](C)CC2)c(F)c1 [Compound 344]
IC50: 10 to 100 nM

CCC(=O)N[C@@H](C(=O)NCC1CCC1)[C@@H](C)c1ccc(NC(=O)[C@@H](NC(=O)c2ccnn2CC)[C@H]2CC[C@H](C)CC2)c(F)c1 [Compound 345]
IC50: 10 to 100 nM

CCC(=O)N[C@@H](C(=O)NCC1(C)CC1)[C@@H](C)c1ccc(NC(=O)[C@@H](NC(=O)c2ccnn2CC)[C@H]2CC[C@H](C)CC2)c(F)c1 [Compound 346]
IC50: 10 to 100 nM

CCC(=O)N[C@@H](C(=O)N1CCN(Cc2ccccn2)CC1)[C@@H](C)c1ccc(NC(=O)[C@@H](NC(=O)c2ccnn2CC)C2CCCCCC2)c(F)c1 [Compound 348]
IC50: < 10 nM

CCC(=O)N[C@@H](C(=O)N1CCOCC1)[C@@H](C)c1ccc(NC(=O)[C@@H](NC(=O)C(F)(F)c2cccc(C#N)c2)C2CCCCCC2)c(F)c1 [Compound 349]
IC50: < 10 nM

CCC(=O)N[C@@H](C(=O)N1CCC(C)(O)CC1)[C@@H](C)c1ccc(NC(=O)[C@@H](NC(=O)c2ccnn2CC)C2CCCCCC2)c(F)c1 [Compound 350]
IC50: < 10 nM

CCC(=O)N[C@@H](C(=O)N1CCOCC1)[C@@H](C)c1ccc(NC(=O)[C@@H](NC(=O)c2ccnn2CC)C2CCCCCC2)c(F)c1 [Compound 351]
IC50: 10 to 100 nM

CCC(=O)N[C@@H](C(=O)N1CCOCC1)[C@@H](C)c1ccc(NC(=O)[C@@H](NC(=O)C(F)(F)c2cccc(C#N)c2)C2CCCCC2)c(F)c1 [Compound 352]
IC50: 10 to 100 nM

CCC(=O)N[C@@H](C(=O)N1CCS(=O)(=O)CC1)[C@@H](C)c1ccc(NC(=O)[C@@H](NC(=O)c2ccnn2CC)C2CCCCCC2)c(F)c1 [Compound 353]
IC50: 10 to 100 nM

CCC(=O)N[C@@H](C(=O)N1CCS(=O)(=O)CC1)[C@@H](C)c1ccc(NC(=O)[C@@H](NC(=O)C(F)(F)c2cccc(C#N)c2)C2CCCCCC2)c(F)c1 [Compound 354]
IC50: < 10 nM

CCC(=O)N[C@@H](C(=O)N1CCC(C)(O)CC1)[C@@H](C)c1ccc(NC(=O)[C@@H](NC(=O)C(F)(F)c2cccc(C#N)c2)C2CCCCCC2)c(F)c1 [Compound 355]
IC50: < 10 nM

CCC(=O)N[C@@H](C(=O)N1CC(N(C)C)C1)[C@@H](C)c1ccc(NC(=O)[C@@H](NC(=O)c2ccnn2CC)C2CCCCCC2)c(F)c1 [Compound 356]
IC50: 10 to 100 nM

CCC(=O)N[C@@H](C(=O)N1CCC(C)(O)CC1)[C@@H](C)c1ccc(NC(=O)[C@@H](NC(=O)c2conc2CC)C2CCCCCC2)c(F)c1 [Compound 357]
IC50: < 10 nM

CCC(=O)N[C@@H](C(=O)N1CCN(CCOC)CC1)[C@@H](C)c1ccc(NC(=O)[C@@H](NC(=O)c2ccnn2CC)C2CCCCC2)c(F)c1 [Compound 358]
IC50: 10 to 100 nM

CCC(=O)N[C@@H](C(=O)N1CCOCC1)[C@@H](C)c1ccc(NC(=O)[C@@H](NC(=O)c2ccnn2CC)C2CCCCC2)c(F)c1 [Compound 359]
IC50: 10 to 100 nM

CCC(=O)N[C@@H](C(=O)NC1CCOCC1)[C@@H](C)c1ccc(NC(=O)[C@@H](NC(=O)c2ccnn2CC)C2CCCCC2)c(F)c1 [Compound 360]
IC50: 10 to 100 nM

CCC(=O)N[C@@H](C(=O)N1CCS(=O)(=O)CC1)[C@@H](C)c1ccc(NC(=O)[C@@H](NC(=O)c2ccnn2CC)C2CCCCC2)c(F)c1 [Compound 361]
IC50: 10 to 100 nM

CCC(=O)N[C@@H](C(=O)N1CCN(C(C)C)CC1)[C@@H](C)c1ccc(NC(=O)[C@@H](NC(=O)c2ccnn2CC)C2CCCCC2)c(F)c1 [Compound 362]
IC50: 10 to 100 nM

CCC(=O)N[C@@H](C(=O)N1CCN(Cc2ccccn2)CC1)[C@@H](C)c1ccc(NC(=O)[C@@H](NC(=O)C(F)(F)c2cccc(C#N)c2)C2CCCCC2)c(F)c1 [Compound 363]
IC50: < 10 nM

CCC(=O)N[C@@H](C(=O)N1CCC(C)(O)CC1)[C@@H](C)c1ccc(NC(=O)[C@@H](NC(=O)C(F)(F)c2cccc(C#N)c2)C2CCCCC2)c(F)c1 [Compound 364]
IC50: < 10 nM

CCC(=O)N[C@@H](C(=O)N1CCS(=O)(=O)CC1)[C@@H](C)c1ccc(NC(=O)[C@@H](NC(=O)C(F)(F)c2cccc(C#N)c2)C2CCCCC2)c(F)c1 [Compound 365]
IC50: 10 to 100 nM

CCC(=O)N[C@@H](C(=O)N1CCN(Cc2ccccc2)CC1)[C@@H](C)c1ccc(NC(=O)[C@@H](NC(=O)c2ccnn2CC)C2CCCCC2)c(F)c1 [Compound 366]
IC50: < 10 nM

CCC(=O)NC(C(=O)N1CCN(Cc2ccccc2)CC1)[C@@H](C)c1ccc(NC(=O)[C@@H](NC(=O)c2ccnn2CC)[C@H]2CC[C@H](C)CC2)c(F)c1 (stereo partly shown) [Compound 367]
IC50: 10 to 100 nM
